Earlier results on one molecule are cited in patent US11478476B2 (CONTERA PHARMA APS, priority 2014, dated 2022).

As a reminder, the Ki is a measure of affinity in units of concentration, obtained from inhibition or displacement. The term IC50 denotes the concentration that gives 50% inhibition. As usually defined, the Cmax is the maximum level reached in the sampled fluid or tissue. The term EC50 denotes the concentration needed to bring the measured effect to its halfway point.

Read-outs that look alike come from different tables or passages of the source.

The target in data set [1] is human recombinant dopamine D2 receptor (Homo sapiens, UniProt P14416). As to conditions: read-out: D2 affinity Ki ± SEM; cited from earlier work.
Chain of human recombinant dopamine D2 receptor (P14416 whole entry): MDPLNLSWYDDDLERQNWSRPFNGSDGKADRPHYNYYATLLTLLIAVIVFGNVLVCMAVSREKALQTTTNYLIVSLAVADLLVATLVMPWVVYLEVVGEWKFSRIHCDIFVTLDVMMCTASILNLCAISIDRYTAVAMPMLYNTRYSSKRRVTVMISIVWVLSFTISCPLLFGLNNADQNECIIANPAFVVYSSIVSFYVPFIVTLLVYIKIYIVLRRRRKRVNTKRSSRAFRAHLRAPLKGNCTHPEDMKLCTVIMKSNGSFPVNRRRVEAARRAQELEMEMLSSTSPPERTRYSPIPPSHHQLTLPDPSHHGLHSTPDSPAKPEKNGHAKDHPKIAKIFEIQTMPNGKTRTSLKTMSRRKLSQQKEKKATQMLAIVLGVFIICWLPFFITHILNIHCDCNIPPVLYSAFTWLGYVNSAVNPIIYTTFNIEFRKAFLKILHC
Data set [2] has as its target T1, human recombinant dopamine D4 receptor (Homo sapiens, UniProt P21917).
T1 sequence (P21917 1-419): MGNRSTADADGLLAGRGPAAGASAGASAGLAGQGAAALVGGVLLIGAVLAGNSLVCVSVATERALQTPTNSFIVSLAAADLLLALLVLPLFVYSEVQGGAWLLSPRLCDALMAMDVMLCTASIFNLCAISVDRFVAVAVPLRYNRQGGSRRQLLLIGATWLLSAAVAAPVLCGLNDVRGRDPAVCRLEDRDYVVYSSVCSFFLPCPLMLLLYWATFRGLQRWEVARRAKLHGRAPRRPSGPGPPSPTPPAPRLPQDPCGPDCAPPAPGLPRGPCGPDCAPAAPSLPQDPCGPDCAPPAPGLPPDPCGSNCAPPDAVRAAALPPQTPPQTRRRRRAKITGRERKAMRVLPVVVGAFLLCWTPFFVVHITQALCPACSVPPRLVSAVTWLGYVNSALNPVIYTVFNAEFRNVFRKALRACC
As to conditions: read-out: D4 affinity Ki ± SEM; cited from earlier work.

For data set [3], the target named is T2, human recombinant dopamine D3 receptor (Homo sapiens, UniProt P35462). As to conditions: read-out: D3 affinity Ki ± SEM; cited from earlier work.
T2 sequence (P35462 whole entry): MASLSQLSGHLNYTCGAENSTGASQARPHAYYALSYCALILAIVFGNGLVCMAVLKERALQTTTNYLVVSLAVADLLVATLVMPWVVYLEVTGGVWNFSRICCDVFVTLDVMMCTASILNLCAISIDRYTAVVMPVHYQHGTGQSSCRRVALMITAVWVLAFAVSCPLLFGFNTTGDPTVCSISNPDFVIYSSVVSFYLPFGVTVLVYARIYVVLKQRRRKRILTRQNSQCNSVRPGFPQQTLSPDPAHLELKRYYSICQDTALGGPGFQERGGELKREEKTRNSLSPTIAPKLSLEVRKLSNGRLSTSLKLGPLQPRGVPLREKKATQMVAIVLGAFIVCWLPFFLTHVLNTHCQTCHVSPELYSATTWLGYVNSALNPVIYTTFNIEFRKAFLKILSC
The conditions of data set [4]: cited from earlier work.
Data set [5] concerns the target T2, human recombinant dopamine D3 receptor. As to conditions: saturating concentrations of dopamine; read-out: D3 efficacy IC50 ± SEM; cited from earlier work.
For data set [6] the following is noted: human volunteers, cited from earlier work.
Data set [7] concerns the target T3, serotonin 5-HT1A receptor (Rattus norvegicus, UniProt P19327).
T3 construct: host or cells: rat brain in vivo (dorsal raphe, hippocampus)
T3 sequence (P19327 1-422): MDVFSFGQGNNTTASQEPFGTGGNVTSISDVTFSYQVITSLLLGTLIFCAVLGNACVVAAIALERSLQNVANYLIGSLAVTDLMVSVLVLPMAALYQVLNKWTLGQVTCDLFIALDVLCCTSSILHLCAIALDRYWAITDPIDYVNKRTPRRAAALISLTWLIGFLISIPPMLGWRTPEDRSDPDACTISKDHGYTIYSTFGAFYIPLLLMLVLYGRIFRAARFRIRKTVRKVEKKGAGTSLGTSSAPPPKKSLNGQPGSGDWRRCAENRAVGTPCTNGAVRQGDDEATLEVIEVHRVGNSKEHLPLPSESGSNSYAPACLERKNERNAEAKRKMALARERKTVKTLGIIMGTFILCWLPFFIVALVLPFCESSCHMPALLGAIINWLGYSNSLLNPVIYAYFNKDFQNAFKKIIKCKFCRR
As to conditions: rats, intravenous infusions to steady-state plasma levels, cited from earlier work.

Setting [8] is: oral administration of buspirone, analyte = label (6-OH-Busp: total, both enantiomers).
The mark [9] stands for this setting: oral administration of racemic 6-OH-Busp, exposure of 6-OH-Busp.

For `O=C1CC2(CCCC2)C(O)C(=O)N1CCCCN1CCN(c2ncccn2)CC1` (racemic) [6-OH-Busp], the Ki in data set [1] was 5390 ± 425 nM; in data set [2], 40.4 ± 17.5 nM; in data set [3], 795 ± 84 nM. Moreover, the “exposure (area under the concentration-time profile) of metabolite relative to parent compound” value in data set [4] (oral dosing of buspirone in rats) is reported as 12 fold. Further, the Bioavailability in data set [4] (rats) is given as 19%. Moreover, the plasma half-life in data set [4] (rats) is 1.2 ± 0.2 h. The IC50 in data set [5] is 4900 ± 2800 nM. In data set [6] (after administration of either parent buspirone or 6-OH-Busp), the “half-life (T½)” value was “longer than that of buspirone”. Moreover, the AUC0-INF in data set [6] (setting [8]) is listed as 52.93 ngxh/ml; in data set [6] (setting [9]), 131.52 ngxh/ml. Further, the Cmax in data set [6] (setting [8]) is listed as 9.12 ng/mL; in data set [6] (setting [9]) it was 25.63 ng/mL. Besides, the EC50 in data set [7] (dorsal raphe (presynaptic), read-out: 5-HT1A receptor occupancy EC50, dorsal raphe) is 1000 ± 300 nM; in data set [7] (hippocampus (postsynaptic), read-out: 5-HT1A receptor occupancy EC50, hippocampus), 4000 ± 600 nM.
